According to ChEMBL document CHEMBL5465560, “Selectivity Literature for EUbOPEN Chemogenomic Library” (2024):
Values belong to the compound of their own block, whether it stands above or below them.

Experiments:
[1] = target: Receptor tyrosine-protein kinase erbB-4 (Homo sapiens, UniProt Q15303); assay: Selectivity interaction (Millipore kinase profiler) EUB0000124b ERBB4; details: at 10 µM
[2] = target: T1, Myotonin-protein kinase (Homo sapiens) (UniProt Q09013); assay: Selectivity interaction (LanthaScreen Eu Kinase Binding Assay) EUB0001632a DMPK; details: at 10 µM
T1 sequence (whole entry): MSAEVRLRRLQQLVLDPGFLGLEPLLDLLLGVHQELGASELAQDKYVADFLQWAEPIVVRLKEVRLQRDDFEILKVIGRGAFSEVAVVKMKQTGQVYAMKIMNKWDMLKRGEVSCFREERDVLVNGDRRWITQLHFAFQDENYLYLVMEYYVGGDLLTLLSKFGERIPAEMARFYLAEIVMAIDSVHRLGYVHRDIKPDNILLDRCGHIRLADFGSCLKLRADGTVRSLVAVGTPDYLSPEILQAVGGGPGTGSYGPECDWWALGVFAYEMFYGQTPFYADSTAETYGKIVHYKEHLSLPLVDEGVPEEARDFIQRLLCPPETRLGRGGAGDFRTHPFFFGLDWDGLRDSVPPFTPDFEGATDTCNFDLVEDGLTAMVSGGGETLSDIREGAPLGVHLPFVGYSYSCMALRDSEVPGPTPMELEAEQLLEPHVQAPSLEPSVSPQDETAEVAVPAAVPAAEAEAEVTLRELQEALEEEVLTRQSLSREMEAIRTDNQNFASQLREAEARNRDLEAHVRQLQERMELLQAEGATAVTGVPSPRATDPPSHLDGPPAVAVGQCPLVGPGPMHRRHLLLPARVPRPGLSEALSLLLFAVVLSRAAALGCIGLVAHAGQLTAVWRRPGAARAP

[3] = system: Epidermal growth factor receptor (Homo sapiens), P00533 [T790M]; assay: (§1) Selectivity interaction (Kinase panel (Z-LYTE Assay)) EUB0001632a EGFR; details: at 10 µM
[4] = system: Epidermal growth factor receptor (Homo sapiens), P00533 [L858R]; assay: as §1; details: at 10 µM
[5] = system: Epidermal growth factor receptor (Homo sapiens), P00533 [L858R,T790M]; assay: as §1; details: at 10 µM
[6] = system: Epidermal growth factor receptor (Homo sapiens), P00533 [L861Q]; assay: as §1; details: at 10 µM
[7] = target: Epidermal growth factor receptor (Homo sapiens, UniProt P00533); assay: as §1; details: at 10 µM
[8] = target: Mitogen-activated protein kinase 8 (Homo sapiens, UniProt P45983); assay: Selectivity interaction (KinomeScan (DiscoverX)) EUB0000595a MAPK8; details: at 10 µM
[9] = target: T2, Serine/threonine-protein kinase Nek2 (Homo sapiens) (UniProt P51955); assay: Selectivity interaction (ProQinase) EUB0000171b NEK2
T2 sequence (whole entry): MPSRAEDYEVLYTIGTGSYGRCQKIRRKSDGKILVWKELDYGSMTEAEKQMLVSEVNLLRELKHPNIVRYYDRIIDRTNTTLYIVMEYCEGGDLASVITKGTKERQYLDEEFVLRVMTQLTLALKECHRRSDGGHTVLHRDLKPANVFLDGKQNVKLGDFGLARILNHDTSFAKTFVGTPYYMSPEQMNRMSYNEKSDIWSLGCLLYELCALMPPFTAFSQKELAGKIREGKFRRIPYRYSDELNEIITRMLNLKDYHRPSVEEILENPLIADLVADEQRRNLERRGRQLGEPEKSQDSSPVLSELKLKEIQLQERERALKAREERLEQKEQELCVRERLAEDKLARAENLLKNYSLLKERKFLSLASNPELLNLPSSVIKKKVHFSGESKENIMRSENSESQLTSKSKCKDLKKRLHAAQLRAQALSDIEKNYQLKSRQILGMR

Aurora kinase B = Aurora kinase B (Homo sapiens, UniProt Q96GD4); assay: Selectivity interaction (KinomeScan (DiscoverX)) EUB0000092b AURKB; details: at 10 µM
[10] = target: Ribosomal protein S6 kinase alpha-1 (Homo sapiens, UniProt Q15418); assay: Selectivity interaction (KinomeScan (DiscoverX)) EUB0000092b RPS6KA1; details: at 10 µM
[11] = target: Calcium/calmodulin-dependent protein kinase type 1 (Homo sapiens) (UniProt Q14012); assay: Selectivity interaction (KinomeScan (DiscoverX)) EUB0000045b CAMK1
[12] = target: Bone morphogenetic protein receptor type-1B (Homo sapiens, UniProt O00238); assay: Selectivity interaction (KinomeScan (DiscoverX)) EUB0000045b BMPR1B
[13] = target: Mitogen-activated protein kinase kinase kinase 1 (Homo sapiens, UniProt Q13233); assay: Selectivity interaction (KinomeScan (DiscoverX)) EUB0001619a MAP3K1; details: at 1 µM
[14] = target: T3, Dual specificity protein kinase TTK (Homo sapiens) (UniProt P33981); assay: Selectivity interaction (KinomeScan (DiscoverX)) EUB0000607a TTK; details: at 10 µM
T3 sequence (whole entry): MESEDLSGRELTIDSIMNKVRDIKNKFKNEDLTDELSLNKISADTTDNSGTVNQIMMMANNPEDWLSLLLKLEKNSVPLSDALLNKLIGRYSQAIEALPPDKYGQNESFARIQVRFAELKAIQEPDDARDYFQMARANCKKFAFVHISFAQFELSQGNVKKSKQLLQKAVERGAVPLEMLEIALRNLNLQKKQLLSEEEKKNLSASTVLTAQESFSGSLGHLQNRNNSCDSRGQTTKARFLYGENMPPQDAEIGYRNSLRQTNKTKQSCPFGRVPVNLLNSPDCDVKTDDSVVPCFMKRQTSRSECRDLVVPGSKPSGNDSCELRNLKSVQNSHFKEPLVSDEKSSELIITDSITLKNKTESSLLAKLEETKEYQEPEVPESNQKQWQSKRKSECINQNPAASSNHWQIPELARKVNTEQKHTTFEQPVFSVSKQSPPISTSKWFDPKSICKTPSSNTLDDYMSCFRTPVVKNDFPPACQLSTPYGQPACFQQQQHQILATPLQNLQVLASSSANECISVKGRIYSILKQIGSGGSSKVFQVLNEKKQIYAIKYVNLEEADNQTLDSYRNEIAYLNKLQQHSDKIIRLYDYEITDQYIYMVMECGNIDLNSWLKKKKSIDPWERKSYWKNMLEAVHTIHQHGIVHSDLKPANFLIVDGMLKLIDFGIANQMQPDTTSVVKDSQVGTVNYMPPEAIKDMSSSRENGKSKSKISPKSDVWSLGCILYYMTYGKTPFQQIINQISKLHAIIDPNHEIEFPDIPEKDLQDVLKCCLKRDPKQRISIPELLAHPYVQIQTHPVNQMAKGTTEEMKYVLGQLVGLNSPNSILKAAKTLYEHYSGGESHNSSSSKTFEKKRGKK

Chain of Bone morphogenetic protein receptor type-1B (O00238 whole entry): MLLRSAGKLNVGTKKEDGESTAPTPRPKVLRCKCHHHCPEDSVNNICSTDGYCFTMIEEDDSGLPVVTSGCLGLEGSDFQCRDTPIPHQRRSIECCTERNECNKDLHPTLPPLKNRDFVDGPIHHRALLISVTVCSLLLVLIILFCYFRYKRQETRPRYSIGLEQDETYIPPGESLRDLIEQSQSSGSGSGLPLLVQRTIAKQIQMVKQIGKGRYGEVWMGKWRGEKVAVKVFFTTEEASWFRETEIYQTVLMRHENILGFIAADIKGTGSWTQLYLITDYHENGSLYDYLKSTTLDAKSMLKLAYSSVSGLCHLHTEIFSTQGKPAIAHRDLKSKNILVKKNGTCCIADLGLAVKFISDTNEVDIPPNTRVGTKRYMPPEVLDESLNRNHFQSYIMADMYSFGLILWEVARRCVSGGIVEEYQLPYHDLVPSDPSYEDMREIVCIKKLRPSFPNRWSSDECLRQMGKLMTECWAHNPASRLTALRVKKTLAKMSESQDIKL
Chain of Calcium/calmodulin-dependent protein kinase type 1 (Homo sapiens) (Q14012 whole entry, looked up): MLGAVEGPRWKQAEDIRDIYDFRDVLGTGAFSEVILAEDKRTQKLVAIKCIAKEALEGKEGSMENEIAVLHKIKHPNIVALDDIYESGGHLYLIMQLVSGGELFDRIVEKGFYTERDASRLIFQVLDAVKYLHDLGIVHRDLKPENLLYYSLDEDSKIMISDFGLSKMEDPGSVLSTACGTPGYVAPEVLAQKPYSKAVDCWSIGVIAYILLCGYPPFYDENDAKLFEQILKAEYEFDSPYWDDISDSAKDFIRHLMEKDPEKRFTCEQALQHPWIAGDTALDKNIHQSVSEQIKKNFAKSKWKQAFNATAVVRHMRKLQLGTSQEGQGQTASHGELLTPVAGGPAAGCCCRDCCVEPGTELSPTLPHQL
Chain of Epidermal growth factor receptor (P00533 whole entry): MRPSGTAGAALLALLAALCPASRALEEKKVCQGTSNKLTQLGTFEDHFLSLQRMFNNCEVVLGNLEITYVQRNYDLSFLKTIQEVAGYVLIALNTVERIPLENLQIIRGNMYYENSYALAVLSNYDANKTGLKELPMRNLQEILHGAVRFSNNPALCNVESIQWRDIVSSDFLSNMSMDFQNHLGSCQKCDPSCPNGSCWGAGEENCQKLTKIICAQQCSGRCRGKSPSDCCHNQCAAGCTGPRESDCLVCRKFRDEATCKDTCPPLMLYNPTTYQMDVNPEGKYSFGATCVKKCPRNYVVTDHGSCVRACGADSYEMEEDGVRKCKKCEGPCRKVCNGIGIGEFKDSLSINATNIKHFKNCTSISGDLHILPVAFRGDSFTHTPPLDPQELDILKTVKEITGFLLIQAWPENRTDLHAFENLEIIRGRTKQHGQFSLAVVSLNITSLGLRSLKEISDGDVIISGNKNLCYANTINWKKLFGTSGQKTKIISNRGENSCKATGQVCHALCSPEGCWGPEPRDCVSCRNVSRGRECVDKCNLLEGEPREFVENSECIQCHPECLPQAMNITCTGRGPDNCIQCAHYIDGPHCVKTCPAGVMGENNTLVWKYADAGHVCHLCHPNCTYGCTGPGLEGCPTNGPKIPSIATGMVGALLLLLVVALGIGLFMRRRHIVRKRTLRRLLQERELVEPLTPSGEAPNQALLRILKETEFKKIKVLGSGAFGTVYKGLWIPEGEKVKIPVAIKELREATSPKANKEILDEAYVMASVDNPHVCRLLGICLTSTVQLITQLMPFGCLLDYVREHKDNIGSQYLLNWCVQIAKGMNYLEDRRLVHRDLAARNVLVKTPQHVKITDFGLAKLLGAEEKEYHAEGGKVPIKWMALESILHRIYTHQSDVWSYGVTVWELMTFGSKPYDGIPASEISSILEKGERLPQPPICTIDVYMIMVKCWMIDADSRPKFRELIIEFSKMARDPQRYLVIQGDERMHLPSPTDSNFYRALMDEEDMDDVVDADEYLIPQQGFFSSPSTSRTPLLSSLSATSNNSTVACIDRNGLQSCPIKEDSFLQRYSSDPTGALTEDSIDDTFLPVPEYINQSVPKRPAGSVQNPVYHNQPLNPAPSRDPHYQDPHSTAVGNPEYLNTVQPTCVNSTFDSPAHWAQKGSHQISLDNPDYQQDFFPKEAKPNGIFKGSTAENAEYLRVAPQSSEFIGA
Chain of Receptor tyrosine-protein kinase erbB-4 (Q15303 whole entry): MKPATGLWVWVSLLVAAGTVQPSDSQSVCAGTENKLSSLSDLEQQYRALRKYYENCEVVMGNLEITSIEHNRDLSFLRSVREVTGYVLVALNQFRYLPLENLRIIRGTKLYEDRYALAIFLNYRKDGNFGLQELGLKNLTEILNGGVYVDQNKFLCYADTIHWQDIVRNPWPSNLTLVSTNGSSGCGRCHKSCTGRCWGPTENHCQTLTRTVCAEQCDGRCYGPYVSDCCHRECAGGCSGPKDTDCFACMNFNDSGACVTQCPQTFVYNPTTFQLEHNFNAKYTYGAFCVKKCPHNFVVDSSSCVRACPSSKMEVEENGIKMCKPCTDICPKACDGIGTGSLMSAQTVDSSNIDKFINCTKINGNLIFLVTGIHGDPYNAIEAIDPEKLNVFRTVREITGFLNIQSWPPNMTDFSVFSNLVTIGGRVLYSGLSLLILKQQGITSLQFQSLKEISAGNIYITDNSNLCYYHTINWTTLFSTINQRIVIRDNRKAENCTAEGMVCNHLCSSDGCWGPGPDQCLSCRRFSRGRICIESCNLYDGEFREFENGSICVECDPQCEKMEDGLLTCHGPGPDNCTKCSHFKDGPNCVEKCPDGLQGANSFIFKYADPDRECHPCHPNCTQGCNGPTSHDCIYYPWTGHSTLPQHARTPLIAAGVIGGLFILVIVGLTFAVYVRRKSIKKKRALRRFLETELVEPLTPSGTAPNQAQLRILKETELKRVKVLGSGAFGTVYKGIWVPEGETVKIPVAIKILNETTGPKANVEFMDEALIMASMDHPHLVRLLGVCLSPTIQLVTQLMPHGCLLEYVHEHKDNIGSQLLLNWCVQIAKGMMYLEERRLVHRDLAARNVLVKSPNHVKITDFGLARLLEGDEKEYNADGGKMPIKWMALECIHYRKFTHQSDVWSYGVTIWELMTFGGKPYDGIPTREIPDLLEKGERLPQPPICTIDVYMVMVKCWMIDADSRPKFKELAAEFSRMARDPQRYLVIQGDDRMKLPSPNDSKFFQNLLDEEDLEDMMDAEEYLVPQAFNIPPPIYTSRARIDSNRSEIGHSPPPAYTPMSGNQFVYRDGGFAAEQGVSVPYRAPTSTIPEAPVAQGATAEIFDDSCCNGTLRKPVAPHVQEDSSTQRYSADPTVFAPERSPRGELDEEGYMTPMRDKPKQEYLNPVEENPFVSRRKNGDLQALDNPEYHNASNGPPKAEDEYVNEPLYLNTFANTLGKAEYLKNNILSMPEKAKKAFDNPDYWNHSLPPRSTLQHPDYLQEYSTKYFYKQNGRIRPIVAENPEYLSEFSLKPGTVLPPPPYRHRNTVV
Chain of Aurora kinase B (Q96GD4 whole entry): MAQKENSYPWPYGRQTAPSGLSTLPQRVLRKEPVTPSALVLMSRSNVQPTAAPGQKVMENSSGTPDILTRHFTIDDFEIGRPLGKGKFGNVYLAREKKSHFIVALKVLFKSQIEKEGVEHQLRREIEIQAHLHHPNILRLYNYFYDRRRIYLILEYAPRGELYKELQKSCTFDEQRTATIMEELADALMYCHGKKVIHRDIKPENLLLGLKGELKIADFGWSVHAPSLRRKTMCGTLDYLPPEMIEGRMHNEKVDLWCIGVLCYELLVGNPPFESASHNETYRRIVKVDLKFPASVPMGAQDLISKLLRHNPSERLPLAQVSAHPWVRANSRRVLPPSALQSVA
Chain of Epidermal growth factor receptor (Homo sapiens), P00533 [L858R,T790M] (P00533 whole entry T790M/L858R, looked up): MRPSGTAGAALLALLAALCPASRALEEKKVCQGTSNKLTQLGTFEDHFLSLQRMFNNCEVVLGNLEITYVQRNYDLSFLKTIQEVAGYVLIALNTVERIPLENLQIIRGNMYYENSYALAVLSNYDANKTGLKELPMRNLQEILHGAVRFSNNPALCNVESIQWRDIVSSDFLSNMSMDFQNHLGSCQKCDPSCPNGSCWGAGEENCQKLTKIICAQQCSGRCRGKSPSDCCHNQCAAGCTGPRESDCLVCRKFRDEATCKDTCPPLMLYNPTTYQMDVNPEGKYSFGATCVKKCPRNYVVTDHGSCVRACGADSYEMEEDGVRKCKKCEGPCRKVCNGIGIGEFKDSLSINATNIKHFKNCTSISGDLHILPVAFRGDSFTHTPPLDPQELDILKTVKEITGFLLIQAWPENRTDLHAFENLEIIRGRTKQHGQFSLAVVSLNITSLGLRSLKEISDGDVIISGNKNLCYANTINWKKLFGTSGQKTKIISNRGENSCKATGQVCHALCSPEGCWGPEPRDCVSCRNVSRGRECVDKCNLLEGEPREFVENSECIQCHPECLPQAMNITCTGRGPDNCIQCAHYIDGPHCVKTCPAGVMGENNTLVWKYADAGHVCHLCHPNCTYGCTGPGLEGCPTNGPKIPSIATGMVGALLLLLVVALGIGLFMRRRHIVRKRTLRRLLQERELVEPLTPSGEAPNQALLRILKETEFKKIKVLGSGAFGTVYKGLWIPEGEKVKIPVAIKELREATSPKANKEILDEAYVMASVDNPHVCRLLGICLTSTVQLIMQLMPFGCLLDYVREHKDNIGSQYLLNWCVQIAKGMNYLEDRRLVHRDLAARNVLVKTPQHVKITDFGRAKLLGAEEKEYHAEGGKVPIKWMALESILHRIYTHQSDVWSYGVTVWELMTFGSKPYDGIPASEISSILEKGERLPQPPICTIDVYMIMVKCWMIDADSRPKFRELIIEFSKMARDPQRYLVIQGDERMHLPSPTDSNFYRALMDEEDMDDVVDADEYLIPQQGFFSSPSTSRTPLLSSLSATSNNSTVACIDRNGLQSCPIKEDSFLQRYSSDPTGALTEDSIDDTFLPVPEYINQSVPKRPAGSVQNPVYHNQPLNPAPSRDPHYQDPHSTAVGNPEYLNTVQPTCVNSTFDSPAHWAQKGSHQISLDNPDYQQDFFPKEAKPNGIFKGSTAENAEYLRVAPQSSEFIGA

% of control [1]: 101%
SMILES: CC(=O)Nc1cccc(-n2c(=O)n(C3CC3)c(=O)c3c(Nc4ccc(I)cc4F)n(C)c(=O)c(C)c32)c1

% of inhibition [2]: -4.81% | % of control [3]: 1.29% | % of control [4]: 3.58% | % of control [5]: 5.81% | % of control [6]: 9.07% | % of control [7]: 3.08%
SMILES: Cn1cc(-n2cnc3c(NCc4nc5cc(Cl)c(Cl)cc5[nH]4)nc(N4CCOCC4)nc32)cn1

SMILES: COCC(=O)NC/C=C/c1ccc2ncnc(Nc3ccc(Oc4ccc(C)nc4)c(C)c3)c2c1 [CP-724714]
% of control [8]: 66%

% of control ([9]; at 1 µM): 92% | % of control ([9]; at 5 µM): 78%
SMILES: C=CC(=O)Nc1cccc(C(=O)Nc2ccc(Nc3cc(-c4[nH]c(SC)nc4C)ccn3)cc2)c1

SMILES: CCC(=O)N1CCN(c2ccc(-n3c(=O)ccc4cnc5ccc(-c6cnc7ccccc7c6)cc5c43)cc2C(F)(F)F)CC1
% of control (Aurora kinase B): 82% | % of control [10]: 68%

SMILES: C=CC(=O)Nc1cc(-n2c(=O)ccc3cnc4ccc(-c5ccc(NS(C)(=O)=O)cc5)cc4c32)ccc1C
% of control ([11]; at 1 µM): 100% | % of control ([11]; at 10 µM): 88% | % of control ([12]; at 1 µM): 100% | % of control ([12]; at 10 µM): 80%

SMILES: N#Cc1cccc(-c2c[nH]c3ncnc(N4CCOCC4)c23)c1
% of control [13]: 82%

SMILES: CNC(=O)Nc1ccc(-c2nc(N3CC4CCC(C3)O4)c3cnn(C4CCC5(CC4)OCCO5)c3n2)cc1
% of control [14]: 100%
